Measured values from patent publication US10660789B2, “1,4-dihydropyridine derivatives with HSP modulating activity” (Richter Gedeon NYRT., priority 2011, dated 2020).
Where a name gives a salt, the structure may show the parent alone. Read-outs that look alike come from different tables or passages of the source. Marks after values point to notes of the source that are not given here. One block for each compound: values may come before it.

Experiments:
Zucker obese rat = test: Insulin resistance, Zucker obese rat; type: in vivo
Description: Insulin sensitizing activity of the compounds was tested in Zucker obese rat at three doses (10, 30 and 100 mg/kg), 6 weeks old Zucker obese (ZO) rats were adapted for a week before the administration of the compound. The animals were treated once a day for 5 days with compound Ex. 1 with 10, 30 and 100 mg/kg dose by stomach probe. The control group was treated with Klucel solution. The animals were kept in metabolic cage during the experiment, their food and drink consumption, the amount of urine and faeces was determined daily.
At the end of the treatment period the animals were fasted for 16 hours, the fasting plasma glucose level was determined. At the end the animals were sacrificed and different organs were taken for Hsp measurement.

Hsp70 promoter [1] = test: Hsp promoter probing, Hsp70 promoter-YFP reporter, flow cytometry (Table 3); type: cell-based, mouse and human; design: key: +: co-inducing activity; −: silencing activity; 0: with the experimental methods applied no other HSP modulating effects could be identified; settings: heat shock 42° C. 1 h, 16 h recovery; B16 or SHSY5Y reporter cells, cell line per value not stated
Description: (§1) The Hsp co-inducing effect of the compounds on stress response was tested on B16 mouse melanoma and SHSY5Y human neuroblastoma cell lines stably transfected with Hsp promoter probing plasmids. This kind of promoter probing, using the promoter region of a given gene conjugated with fluorescent protein is used as a best and fastest test system for finding drugs which modulate the activity of the gene followed by the given promoter (Wyshocka et al., Mol. Cel. Biochem. 215:153-156, 2000).
The Hsp encoding genes are transactivated through the binding of HSF to the heat shock element found on the DNA upstream of the Hsp genes, in the so called promoter region. In the absence of heat stress, the heat shock factors are present as monomers. Upon heat stress, however, the heat shock factors form trimers, which are the active components, able to bind to heat shock elements. Once HSF is bound to the heat shock element in the promoter of Hsp genes, the gene following the promoter region is transcriptionally active.
(§2) Reporter plasmids, containing the Hsp70 and/or Hsp25 promoter conjugated to either YFP or GFP (yellow or green fluorescent protein), were stably transfected into the cells and the expression of YFP or GFP was followed by flow cytometry. Cells were either kept at 37° C. or exposed to heat shock at 42° C. for 1 hour followed by a 16 hour recovery period at 37° C. in the presence or absence of different concentrations of the test compound. After recovery the expression of YFP or GFP which is in straight correlation with the promoter activity of Hsp70 or Hsp27 genes was followed by measuring the fluorescence intensity of the cells by flow cytometry. Fluorescence intensity is in straight correlation with the amount of fluorescent protein (GFP or YFP) produced under the control of hsp promoter. The mean fluorescence intensity of YFP or GFP produced is shown as “Hsp promoter activity”.
(§3) Cells were homogenously distributed on 6-well plates in 1×10^5 cells/well density. B16-pHsp25-GFP and B16-pHsp70-YFP melanoma cells were grown in RPMI-1640 medium supplemented with 10% Fetal bovine serum (FBS), penicillin (200 units/ml), streptomycin (200 μg/ml) and 2 mM L-Glutamine. For maintaining the SH-SY5Y-pHsp25-GFP and SH-SY5YpHsp70-YFP neuroblastoma cell lines Dulbecco's modified Eagle's medium (DMEM-F-12) containing 10% FBS, 2 mM L-Glutamine, penicillin (200 units/ml), streptomycin (200 μg/ml) and MEM non-essential amino acids were used. Before the treatments both cell lines were incubated at 37° C. in a saturated humidity atmosphere containing 95% air and 5% CO2. After 24 h incubation cells were pretreated with compounds of the invention in four different concentrations (usually in 3; 10; 20 and 50 μM) 30 min before the heat shock at 42° C. for 1 h and then incubated further at 37° C. for 16 h (recovery period). After this procedure cells were trypsinized and suspensed in 500 μl serum-free DMEM-F12 medium. The changes in cells' fluorescence were detected using BD FACSCalibur flow cytometer.

other Hsps = test: Other in vitro HSP modulating effects (Table 3); type: cell-based, mouse and human; design: key: +: co-inducing activity; −: silencing activity; 0: with the experimental methods applied no other HSP modulating effects could be identified
Description: as §1, §2, §3
SY-SY5Y and B16 cells were extracted in NP-40 lysis buffer (PBS pH 7.4, 1% protease inhibitor coctail and 1% Triton X-100). The cell extracts were then constantly agitated at 4° C. for 2 h. The cell extracts were centrifuged at 12000×g for 30 min and supernatants were saved. After the protein concentration measurement 15 μg of total protein was separated by sodium dodecyl sulfate-polyacrylamide gel electrophoresis (SDS-PAGE) under reducing conditions according to the method of Laemmli. Proteins were blotted onto PVDF membrane. The blot was incubated overnight at 4° C. in the presence of mouse α-Hsp25, α-Hsp70, α-Hsp60 és α-Hsp90 monoclonal antibodies diluted in PBS. Then, the membrane was washed three times in PBS-0.05% Tween and incubated for 1 h in peroxidase-conjugated anti-mouse IgG antibody diluted 1:50000 in PBS containing 3% non-fat dry milk. The immune complexes were detected with chemo-luminescent substrate of peroxidase according to the supplier's instructions. Images taken from the membranes were analyzed using AlphaEase FC software.

Hsp25 promoter = test: Hsp25 promoter-GFP reporter in SHSY5Y cells, flow cytometry; type: cell-based, human
Description: as §1, §2
The fluorescence intensity of GFP and YFP […].
Selectivity of the Hsp25 co-inducing activity of compound of Ex. 11 is shown on FIG. 3. […] The fluorescence intensity of GFP produced as a result of Hsp25 promoter activity was measured by flow cytometry.
(§4) Cells were homogenously distributed on 6-well plates in 1×10^5 cells/well density. B16-pHsp25-GFP and B16-pHsp70-YFP melanoma cells were grown in RPMI-1640 medium supplemented with 10% Fetal bovine serum (FBS), penicillin (200 units/ml), streptomycin (200 μg/ml) and 2 mM L-Glutamine. […] The changes in cells' fluorescence were detected using BD FACSCalibur flow cytometer.

Hsp25 = test: Other in vitro effects, Hsp25 (Table 3); type: cell-based, mouse and human; design: key: +: co-inducing activity; −: silencing activity; 0: with the experimental methods applied no other HSP modulating effects could be identified
Description: as §1, §2, §4
SY-SY5Y and B16 cells were extracted in NP-40 lysis buffer (PBS pH 7.4, 1% protease inhibitor coctail and 1% Triton X-100). […] The immune complexes were detected with chemo-luminescent substrate of peroxidase according to the supplier's instructions. Images taken from the membranes were analyzed using AlphaEase FC software.

B16 melanoma cells = test: Experimental metastatic melanoma, B16 cells i.v. in C57Bl/6 mice; type: in vivo, mouse; settings: for drug-related mortality and weight loss: 10 mg/kg i.p. daily, tumor bearing mice; for In vivo efficacy: model in which efficacy was shown
Description: The anticancer activity was tested in C57Bl/6 mouse (B6), the best known syngeneic mouse model of experimental metastatic melanoma. C57Bl/6 mice injected with B16 melanoma cells subcutaneously or intramuscularly develop primary tumors that, in a part of the recipients, give rise to lung metastases. When the B16 cells are injected intravenously via the tail vein, a fraction of the tumor cells homes directly in the lung, where they develop into multiple independent tumor nodules termed “experimental metastases”. Although lung tumors are the most prominent, brain, liver and kidney tumors are also detectable in intravenously injected mice. Since the behavior of the tumor-bearing mice is quite uniform, the model is suitable for simultaneous testing of high numbers of drug candidates in a limited number of experimental animals.
The in vivo tumor experiments were performed with cultured B16 cells that were previously re-isolated from lung metastatic nodules, therefore their metastatic potential was kept optimal. The tumor cells liberated from the tumor mass by trypsin digestion were expanded in cell culture and stored in aliquots in liquid nitrogen, while the number of in vitro passages was kept to a minimum. In the experiments, B6 mice were injected with 100 000 B16 melanoma cells i.v. via the tail vein. The drug candidates were dissolved in physiological saline then they were administered i.p. in a volume of 100 ul. Daily treatment of tumor bearing mice started at day 7 after the tumor injection. The body weight of the mice was measured at day 1, 7, 14 and 21. The survival of the tumor bearing mice was recorded daily. All experiments were performed in accordance with national and European animal welfare guidelines. To prevent unnecessary suffering, moribund mice were euthanized.

Acute toxicity (LD50) = settings: in vivo
Hsp70 promoter [2] = test: Hsp70 promoter-YFP reporter in B16 F-10 melanoma cells, flow cytometry; type: cell-based, mouse; settings: stress induced, FIG. 4
Description: as §1
Reporter plasmids, containing the Hsp70 and/or Hsp25 promoter conjugated to either YFP or GFP (yellow or green fluorescent protein), were stably transfected into the cells and the expression of YFP or GFP was followed by flow cytometry. […] After recovery the expression of YFP or GFP which is in straight correlation with the promoter activity of Hsp70 or Hsp27 genes was followed by measuring the fluorescence intensity of the cells by flow cytometry. Fluorescence intensity is in straight correlation with the amount of fluorescent protein (GFP or YFP) produced under the control of hsp promoter. The mean fluorescence intensity of YFP or GFP produced is shown as “Hsp promoter activity”.
Some of the compounds are Hsp70 selective stress protein response silencers as shown on FIG. 4. […] The fluorescence intensity of YFP produced as a result of Hsp70 promoter activity was measured by flow cytometry. […]

Ca^2+ channel = test: Hsp modulating versus Ca2+ antagonist effect
B16F10 melanoma cells = test: Vincristine cytotoxicity in combination, B16F10 melanoma cells; type: cell-based; settings: Mus musculus, read-out: IC50 of VR (50% inhibition of cell growth)
Description: Cells were homogenously distributed on 96-well plates in 5×10^3 cells/well density then incubated for 24 h at 37° C. On the next day cells were treated with compounds of the invention in 100 nM-200 μM concentration range for 24 h. The viability of the cells were measured using alamarBlue® assay kit according to the supplier's instructions.
The rationale for combination chemotherapy is to use drugs that work by different mechanisms of action, thereby decreasing the likelihood that resistant cancer cells will develop.

Structure (SMILES): CCN1C(C)=C(C(=O)OC)C(c2ccc(C(F)(F)F)cc2)C(C(=O)OC)=C1C [Example 11, Dimethyl 1-ethyl-2,6-dimethyl-4-(4-trifluoromethylphenyl)-1,4-dihydropyridine-3,5-dicarboxylate]
melting point: 135 to 137 °C
activity of the promoter of the Hsp25 gene at 37° C. (Hsp25 promoter; 37° C.): does not affect the activity of the promoter of the Hsp25 gene at 37 °C
Hsp25 co-inducing activity (Hsp25 promoter; heat stress, FIG. 3): strong, concentration dependent co-inducer for Hsp25 stress protein
Other in vitro effects: Hsp25 (Hsp25): Hsp25+

Structure (SMILES): COC(=O)C1=C(C)N(C)C(CCN(C)C)=C(C(=O)OC)C1c1ccc(C(F)(F)F)cc1.Cl (stereo not shown) [Example 14, Dimethyl 2-(2-dimethylaminoethyl)-1,6-dimethyl-4-(4-trifluoromethylphenyl)-1,4-dihydropyridine-3,5-dicarboxylate hydrochloride]
Increase in life span (B16 melanoma cells; 10 mg/kg i.p. daily from day 7 to day 29): 18%
Mean survival time (B16 melanoma cells; 10 mg/kg i.p. daily from day 7 to day 29, control 25.25+/−4.13 days): 29.91 ± 3.78 days
drug-related mortality and weight loss (B16 melanoma cells): did not produce drug-related mortality or weight loss
In vivo efficacy (B16 melanoma cells): Cancer mono-
Other in vitro effects (other Hsps): 0

Structure (SMILES): COC(=O)C1=C(CCN2CCCCC2)N(C)C(CCN2CCCCC2)=C(C(=O)OC)C1c1ccc(C(F)(F)F)cc1 [Example 17, Dimethyl 1-methyl-2,6-bis-(2-piperidin-1-yl-ethyl)-4-(4-trifluoromethylphenyl)-1,4-dihydropyridine-3,5-dicarboxylate dihydrochloride]
LD50 (Acute toxicity (LD50)): 150 mg/kg
Increase in life span (B16 melanoma cells; 1 mg/kg i.p. daily from day 7 to day 18): 23.1%
Mean survival time (B16 melanoma cells; 1 mg/kg i.p. daily from day 7 to day 18, FIG. 8): 31.0 ± 3.7 days
Increase in life span (B16 melanoma cells; 3 mg/kg i.p. daily from day 7 to day 18): 40.8%
Mean survival time (B16 melanoma cells; 3 mg/kg i.p. daily from day 7 to day 18, FIG. 8): 35.55 ± 3.80 days
Increase in life span (B16 melanoma cells; 10 mg/kg i.p. daily from day 7 to day 18): 53.7%
Mean survival time (B16 melanoma cells; 10 mg/kg i.p. daily from day 7 to day 18, FIG. 8): 38.10 ± 10.45 days
drug-related mortality and weight loss (B16 melanoma cells): did not produce drug-related mortality and statistically significant drug related weight loss
In vivo efficacy (B16 melanoma cells): Cancer mono-
Other in vitro effects: Hsp25 (Hsp25): Hsp25 0

Structure (SMILES): COC(=O)C1=C(C)N(C)C(C#N)=C(C(=O)OC)C1c1ccc(C(F)(F)F)cc1 (stereo not shown) [Example 47, Dimethyl 2-cyano-1,6-dimethyl-4-(4-trifluoromethylphenyl)-1,4-dihydropyridine-3,5-dicarboxylate]
melting point: 129 to 132 °C
Hsp70 modulation (Hsp70 promoter [1]): +
Other in vitro effects (other Hsps): 0

Structure (SMILES): CC[C@]1(O)C[C@H]2CN(CCc3c([nH]c4ccccc34)[C@@](C(=O)OC)(c3cc4c(cc3OC)N(C=O)[C@H]3[C@@](O)(C(=O)OC)[C@H](OC(C)=O)[C@]5(CC)C=CCN6CC[C@]43[C@@H]65)C2)C1 [VR, vincristine, reference compound]
IC50 (B16F10 melanoma cells; B16-F10, VR treatment alone): 1300 pM

Continued, in another order:

melting point: 159 to 160 °C
Structure (SMILES): COC(=O)C1=C(C)N(C)C(C)=C(C(=O)OC)C1c1ccc(C(F)(F)F)cc1 [Example 1, Dimethyl 1,2,6-trimethyl-4-(4-trifluoromethylphenyl)-1,4-dihydropyridine-3,5-dicarboxylate]
fasting plasma glucose level (Zucker obese rat; 10, 30 and 100 mg/kg once a day for 5 days by stomach probe, 16 h fasted, FIG. 5A): improved fasting plasma glucose level
Hsp70 amount in brown adipose tissue (Zucker obese rat; 10, 30 and 100 mg/kg once a day for 5 days, Western blot, FIG. 5B): elevated Hsp70 amount in brown adipose tissue
In vivo efficacy (Zucker obese rat; model in which efficacy was shown): Insulin resistance
Hsp70 modulation (Hsp70 promoter [1]): +*
Other in vitro effects (other Hsps): 0****

melting point: 136 to 138 °C
Structure (SMILES): CCC1=C(C(=O)OC)C(c2ccc(C(F)(F)F)cc2)C(C(=O)OC)=C(CC)N1C [Example 27, Dimethyl 2,6-diethyl-1-methyl-4-(triflouromethyl-phenyl)-1,4-dihydropyridine-3,5-dicarboxylate]
Hsp70 silencer activity (Hsp70 promoter [2]): strong concentration dependent silencer for stress induced Hsp70 gene activity
Ca antagonist effect (Ca^2+ channel): no Ca antagonist effect
IC50 (B16F10 melanoma cells; B16-F10, VR with Ex 27 at 10 μM): 400 pM

index of EC50 HSP-modulating/Ca^2+ antagonist effect (Ca^2+ channel): about 1
Structure (SMILES): COC(=O)C1=C(C#N)NC(C)=C(C(=O)OC(C)C)C1c1cccc([N+](=O)[O-])c1 (stereo not shown) [Nilvadipine, reference compound]
